Test systems include A498 renal; EKVX NSCLC; HCT-116 colon; K-562 leukemia; NCI-H522 lung; SF-268 CNS; SF-295 CNS; SK-MEL-2 melanoma; SW-620 colon; T-47D breast.
Test in all cases: NCI anticancer screen, dose series, 48 h

Structures are written as SMILES. Several values for one entry are separate records, joined by “and”; a condition that tells them apart may be missing. Identical values can stand only once.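 Exposure lasted 48 hours, with cells grown in 96-well plates and compounds tested at five concentrations. Here, GI50 denotes the concentration required for 50% inhibition of growth. TGI: concentration producing complete growth inhibition.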 A value given as a limit tells only on which side of the number the result lay.

Turning to `COc1ccc(N(CC(=O)NCCC[Te]c2ccccc2)C(=O)CNC(=O)OC(C)(C)C)cc1`, the GI50 is 2.28 µM in the assay on A498 renal; 0.343 µM with EKVX NSCLC; 2.07 µM in the assay with HCT-116 colon; 5.5 µM in the assay with K-562 leukemia; 2.56 µM in the assay on NCI-H522 lung; 2.7 µM with SF-268 CNS. Also, the GI50 in the assay with SF-295 CNS is 1.27 µM; in the assay on SK-MEL-2 melanoma, 2.99 µM; in the assay on SW-620 colon, 3.44 µM; with T-47D breast it was 11 µM. The TGI with A498 renal is 5.35 µM; in the assay on EKVX NSCLC it was 2.35 µM; with HCT-116 colon it was 6.45 µM; in the assay with K-562 leukemia it was over 100 µM; with NCI-H522 lung, 10.6 µM; in the assay with SF-268 CNS, 7.56 µM. The TGI was found to be 4.11 µM in the assay on SF-295 CNS, 6.77 µM in the assay with SK-MEL-2 melanoma, 14.4 µM in the assay on SW-620 colon and 40.9 µM in the assay on T-47D breast.

With `Oc1c(I)cc(I)c2cccnc12`, the GI50 in the assay with A498 renal is 12.2 µM; with EKVX NSCLC, 3.38 µM; in the assay with HCT-116 colon it was 3.09 µM; with K-562 leukemia, 5.01 µM; in the assay with NCI-H522 lung, 2.96 µM; in the assay on SF-268 CNS, 5.09 µM. Besides, the GI50 in the assay on SF-295 CNS was 3.1 µM; with SK-MEL-2 melanoma it was 8.82 µM; in the assay on SW-620 colon it was 3.74 µM; in the assay on T-47D breast it was 2.88 µM. Also, the TGI is 58 µM in the assay with A498 renal; 24.2 µM with EKVX NSCLC; 13.5 µM in the assay on HCT-116 colon; over 100 µM in the assay on K-562 leukemia; over 100 µM with NCI-H522 lung; 48.3 µM in the assay on SF-268 CNS. The TGI is 8.13 µM with SF-295 CNS, 52.4 µM in the assay with SK-MEL-2 melanoma, over 100 µM in the assay on SW-620 colon and 15.6 µM in the assay with T-47D breast.

Take `COC(=O)CCCCC(=O)c1c(C)[nH]c(/C=C2\N=C(c3ccc[nH]3)C=C2OC)c1C`: the GI50 with A498 renal was 2.49 µM; in the assay with EKVX NSCLC it was 1.14 µM; with HCT-116 colon, 0.109 µM; with K-562 leukemia, 0.403 µM; with NCI-H522 lung, 0.673 µM; in the assay on SF-268 CNS, 0.802 µM. Further, the GI50 is 1.52 µM in the assay on SF-295 CNS, 0.456 µM in the assay with SK-MEL-2 melanoma, 0.395 µM in the assay on SW-620 colon and 0.723 µM with T-47D breast. Besides, the TGI with A498 renal came to 6.39 µM; in the assay on EKVX NSCLC, 2.61 µM; in the assay with K-562 leukemia, 1.77 µM; with NCI-H522 lung, 2.19 µM; in the assay with SF-268 CNS it was 2.17 µM; in the assay with SF-295 CNS, 3.05 µM. The TGI in the assay on SK-MEL-2 melanoma is 1.83 µM; in the assay on SW-620 colon, 1.54 µM; with T-47D breast, 2.36 µM.

As for `O=C(O)Cc1cccnc1`, the TGI in the assay on A498 renal, in the assay with EKVX NSCLC, with HCT-116 colon, in the assay on K-562 leukemia, with NCI-H522 lung and in the assay with SF-268 CNS was over 100 µM throughout. The TGI in the assay with SF-295 CNS, in the assay on SK-MEL-2 melanoma, in the assay on SW-620 colon and with T-47D breast was over 100 µM each time.

For the compound `COC1C(O)C(CO)OC(OC2C(O)COC(OC3C(C)OC(OC4C(O[C@H]5CC[C@@]6(C)C(CC=C7[C@H]6CCC68C(=O)O[C@@](C)(CCCC(C)C)[C@H]6[C@@H](OC(C)=O)C[C@@]78C)C5(C)C)OCC(OS(=O)(=O)O)C4O)C(OC4OCC(O)C(O)C4O)C3O)C2O)C1O` (stereo partly specified), the GI50 with A498 renal is 0.324 µM; in the assay with EKVX NSCLC it was 0.101 µM; in the assay with HCT-116 colon, 0.0886 µM; in the assay on K-562 leukemia it was 0.0923 µM; in the assay with NCI-H522 lung it was 0.194 µM; with SF-268 CNS, 0.199 µM. Further, the GI50 in the assay with SF-295 CNS is 0.158 µM; with SK-MEL-2 melanoma, 0.233 µM; in the assay on SW-620 colon it was 0.0952 µM; in the assay on T-47D breast, 0.2 µM. The TGI worked out at 0.821 µM in the assay on A498 renal; 0.565 µM with EKVX NSCLC; 0.229 µM with HCT-116 colon; 0.242 µM in the assay on K-562 leukemia; 0.497 µM with NCI-H522 lung; 0.685 µM in the assay with SF-268 CNS. Further, the TGI in the assay on SF-295 CNS is 0.389 µM; in the assay on SK-MEL-2 melanoma it was 2.47 µM; with SW-620 colon it was 0.272 µM; with T-47D breast, 0.529 µM.

With `O=C(/C=C/c1cccc(O)c1)c1cccc(-n2cc(-c3ccccc3)[nH]c2=O)c1`, the GI50 in the assay on A498 renal was 12.3 µM; with EKVX NSCLC, 7.18 µM; with HCT-116 colon, 2.22 µM; in the assay on K-562 leukemia it was 2.52 µM; with NCI-H522 lung it was 1.5 µM; with SF-268 CNS it was 3.66 µM. In addition, the GI50 was 5.77 µM with SF-295 CNS, 6.23 µM in the assay with SK-MEL-2 melanoma, 2.13 µM in the assay on SW-620 colon and 3.14 µM with T-47D breast. Moreover, the TGI in the assay on A498 renal was 24.9 µM; in the assay on EKVX NSCLC it was 23 µM; with K-562 leukemia, over 24.8 µM; with NCI-H522 lung, 4.3 µM; in the assay on SF-268 CNS, 12.3 µM; in the assay with SF-295 CNS, 11.8 µM. Moreover, the figures for the TGI in the assay with SK-MEL-2 melanoma, in the assay with SW-620 colon and in the assay on T-47D breast were 24.7 µM, 4.74 µM and 12.1 µM, respectively.

As to `O=C(CCCCCCN1CC(=O)N2[C@@H](c3ccc(Cl)c(Cl)c3)c3[nH]c4ccccc4c3C[C@H]2C1=O)NO`, the GI50 with A498 renal was 5.28 µM; in the assay on EKVX NSCLC, 7.71 µM; in the assay with HCT-116 colon, 1.47 µM; in the assay with K-562 leukemia, 1.54 µM; with NCI-H522 lung, 3.21 µM; in the assay with SF-268 CNS it was 4.66 µM. Besides, the GI50 is 3.66 µM in the assay on SF-295 CNS, 4.07 µM with SK-MEL-2 melanoma, 1.97 µM with SW-620 colon and 1.58 µM in the assay on T-47D breast. In addition, the TGI was 9.92 µM with A498 renal; over 33.3 µM in the assay on EKVX NSCLC; 6.92 µM in the assay on HCT-116 colon; 21.4 µM with K-562 leukemia; 10.5 µM with NCI-H522 lung; 10.5 µM in the assay on SF-268 CNS. The TGI in the assay on SF-295 CNS was 8 µM; in the assay with SK-MEL-2 melanoma it was 13.2 µM; in the assay with SW-620 colon, 9.3 µM; in the assay with T-47D breast it was 25.2 µM.

`Cc1cc(N=Nc2ccccc2C)ccc1N`: the GI50 is 4.38 µM in the assay on A498 renal; 11.7 µM in the assay on EKVX NSCLC; 13.2 µM with HCT-116 colon; 12.8 µM with K-562 leukemia; 6.94 µM in the assay on NCI-H522 lung; 4.36 µM in the assay on SF-268 CNS. In addition, the GI50 in the assay with SW-620 colon was 14.8 µM; in the assay on T-47D breast it was 13.3 µM. In addition, the TGI is 44.3 µM and 23.8 µM in the assay on A498 renal; 45.4 µM and 68 µM in the assay on EKVX NSCLC; 29.5 µM and 27.3 µM in the assay with HCT-116 colon; 32.8 µM and > 100 µM in the assay on K-562 leukemia; 22.9 µM with NCI-H522 lung; 33.6 µM in the assay with SF-268 CNS. For the same compound, the TGI was 25.2 µM and 31.3 µM in the assay with SF-295 CNS; 33.5 µM with SK-MEL-2 melanoma; 48.5 µM and 30.8 µM in the assay with SW-620 colon; 78.5 µM with T-47D breast.

These data come from PubChem BioAssay (NCI).
